pIC50: −log10 of the molar value. Blank lines part the entries; values can stand above or below the compound they belong to. Active and inactive are the calls of the source. The calls are words filed in the database; no cut-off is given here.
Assays:
[1] = molecular target: Mitogen-activated protein kinase 10 (Homo sapiens, UniProt P53779); assay: Inhibition of human JNK3 incubated for 40 mins in presence of ATP and [gamma33P-ATP] by scintillation counting method; settings: for pIC50: read-out: IC50
Cortical neurone [2] = assay: Neuroprotective activity against Amyloid beta (1 to 42)-induced toxicity in rat cortical neuron assessed as cell viability measured after 24 to 48 hrs by MTT assay; format: functional, cell-based; settings: time 24-48 hrs
[3] = molecular target: T1, Mitogen-activated protein kinase 8 (Homo sapiens, UniProt P45983); assay: Inhibition of human JNK1 incubated for 40 mins in presence of ATP and [gamma33P-ATP] by scintillation counting method
[4] = molecular target: T2, Mitogen-activated protein kinase 9 (Homo sapiens, UniProt P45984); assay: Inhibition of human JNK2 incubated for 40 mins in presence of ATP and [gamma33P-ATP] by scintillation counting method
[5] = molecular target: T1, Mitogen-activated protein kinase 8; assay: Inhibition of JNK1 (unknown origin) assessed as incorporation of 33P-ATP
[6] = molecular target: T2, Mitogen-activated protein kinase 9; assay: Inhibition of JNK2 (unknown origin) assessed as incorporation of 33P-ATP
[7] = Cmax in Sprague-Dawley rat at 15 mg/kg, po measured upto 24 hrs by UPLC analysis; format: ADME, organism-based; parameters: dose 15 mg/kg, time < 24 hrs, route po; settings: in vivo
[8] = Tmax in Sprague-Dawley rat at 15 mg/kg, po measured upto 24 hrs by UPLC analysis; format: ADME, organism-based; settings: in vivo
Cortical neurone [9] = assay: Neuroprotective activity against Amyloid beta (1 to 42)-induced toxicity in rat cortical neuron assessed as cell viability at 20 uM measured after 48 hrs by MTT assay; format: functional; settings: read-out: Activity
[10] = Oral bioavailability in Sprague-Dawley rat at 15 mg/kg measured upto 24 hrs by UPLC analysis; format: ADME, organism-based; settings: in vivo
[11] = AUC in Sprague-Dawley rat at 15 mg/kg, po measured upto 24 hrs by UPLC analysis; format: ADME, organism-based; parameters: dose 15 mg/kg, time < 24 hrs, route po; settings: in vivo
Cortical neurone [12] = assay: Neuroprotective activity against Amyloid beta (1 to 42)-induced toxicity in rat cortical neuron assessed as cell viability at 20 uM measured after 24 hrs by MTT assay; format: functional; settings: read-out: Activity
[13] = Half life in Sprague-Dawley rat at 15 mg/kg, po measured upto 24 hrs by UPLC analysis; format: ADME, organism-based; settings: in vivo
[14] = Half life in Sprague-Dawley rat at 1 mg/kg, iv measured upto 24 hrs by UPLC analysis; format: ADME, organism-based; settings: in vivo
[15] = AUC in Sprague-Dawley rat at 1 mg/kg, iv measured upto 24 hrs by UPLC analysis; format: ADME, organism-based; parameters: dose 1 mg/kg, time < 24 hrs, route iv; settings: in vivo

T2 sequence (P45984 whole entry): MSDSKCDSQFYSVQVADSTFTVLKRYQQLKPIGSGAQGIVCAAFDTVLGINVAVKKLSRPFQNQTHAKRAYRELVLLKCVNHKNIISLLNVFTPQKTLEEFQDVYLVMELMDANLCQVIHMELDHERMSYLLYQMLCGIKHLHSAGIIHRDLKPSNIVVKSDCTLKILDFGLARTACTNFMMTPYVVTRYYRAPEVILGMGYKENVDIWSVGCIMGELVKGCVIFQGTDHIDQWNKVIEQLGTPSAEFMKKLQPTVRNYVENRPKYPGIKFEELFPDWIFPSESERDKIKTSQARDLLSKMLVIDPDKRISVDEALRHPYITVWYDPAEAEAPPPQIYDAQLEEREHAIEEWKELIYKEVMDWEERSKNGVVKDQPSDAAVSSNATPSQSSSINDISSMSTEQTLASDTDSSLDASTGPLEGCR
T1 sequence (P45983 whole entry): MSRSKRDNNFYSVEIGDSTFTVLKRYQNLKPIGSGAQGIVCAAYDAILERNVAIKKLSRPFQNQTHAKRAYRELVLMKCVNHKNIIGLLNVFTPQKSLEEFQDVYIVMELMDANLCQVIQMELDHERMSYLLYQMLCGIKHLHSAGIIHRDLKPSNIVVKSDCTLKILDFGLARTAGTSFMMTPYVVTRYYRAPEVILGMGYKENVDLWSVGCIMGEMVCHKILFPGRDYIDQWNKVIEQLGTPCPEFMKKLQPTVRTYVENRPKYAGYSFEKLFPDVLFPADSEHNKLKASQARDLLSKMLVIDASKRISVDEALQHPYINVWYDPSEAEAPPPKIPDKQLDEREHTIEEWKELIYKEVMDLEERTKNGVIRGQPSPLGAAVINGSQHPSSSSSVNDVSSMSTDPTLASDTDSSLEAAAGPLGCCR
Sequence of Mitogen-activated protein kinase 10 (P53779 whole entry): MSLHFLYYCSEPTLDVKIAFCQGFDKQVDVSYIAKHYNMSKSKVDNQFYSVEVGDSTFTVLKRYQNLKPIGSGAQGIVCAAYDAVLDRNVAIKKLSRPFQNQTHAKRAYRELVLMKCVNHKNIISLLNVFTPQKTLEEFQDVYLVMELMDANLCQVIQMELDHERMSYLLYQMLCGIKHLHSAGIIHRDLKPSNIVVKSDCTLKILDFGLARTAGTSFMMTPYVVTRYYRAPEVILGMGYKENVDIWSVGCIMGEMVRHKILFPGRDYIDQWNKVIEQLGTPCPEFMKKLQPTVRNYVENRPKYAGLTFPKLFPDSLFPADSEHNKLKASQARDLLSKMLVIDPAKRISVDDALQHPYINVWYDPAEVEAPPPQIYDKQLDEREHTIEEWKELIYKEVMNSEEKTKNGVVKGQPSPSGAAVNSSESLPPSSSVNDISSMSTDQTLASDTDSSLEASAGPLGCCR

SMILES: N#CCc1cnc(C2=CC3OCOC3C=C2)n1-c1ccnc(N[C@H]2CCCNC2)n1 (stereo not given in full)
pIC50 [1]: < 5.00

SMILES: N#CCc1cnc(-c2ccc3ccccc3n2)n1-c1ccnc(NC2CCCCC2)n1
pIC50 [1]: < 5.00

SMILES: N#CCc1cnc(C2=CC3OCCOC3C=C2)n1-c1ccnc(N[C@H]2CCCNC2)n1 (stereo not given in full)
pIC50 [1]: < 5.00

SMILES: Oc1ccc(/C=C/c2cc(O)cc(O)c2)cc1
Activity (Cortical neurone [2]): Active

SMILES: N#CCc1cnc(-c2ccc(Cl)c(Cl)c2)n1-c1ccnc(NC(=O)NC2CCCN(C(=O)C3CC3)C2)n1 (stereo not given)
pIC50 [1]: < 5.00
pIC50 [3]: < 5.00
pIC50 [4]: < 5.00

SMILES: N#CCc1cnc(-c2ccc3ccccc3n2)n1-c1ccnc(NC2CCOCC2)n1
pIC50 [1]: 4.87

SMILES: C[C@@H](O)CNc1nccc(-n2c(CC#N)cnc2-c2ccc3c(c2)OCCO3)n1
pIC50 [1]: 5.01

SMILES: Cc1ccc(-c2ncn(-c3ccc(Nc4nccc(-c5cccc(N6CCOCC6)c5)n4)cc3)n2)cn1
Activity (Cortical neurone [2]): inactive

SMILES: N#CCc1cnc(-c2ccc(Cl)c(Cl)c2)n1-c1ccnc(NC2CCCCC2)n1
pIC50 [1]: 6.21

SMILES: N#CCc1cnc(-c2ccc(F)c(C(F)(F)F)c2)n1-c1ccnc(N[C@H]2CCCN(C(=O)C3CC3)C2)n1
pIC50 [1]: 5.48

SMILES: C[C@@H](O)CNc1nccc(-n2c(CC#N)cnc2-c2ccc3ccccc3c2)n1
pIC50 [1]: 5.30

SMILES: N#CCc1cnc(-c2ccc3ccccc3c2)n1-c1ccnc(N[C@H]2CCCNC2)n1
pIC50 [1]: < 5.00

SMILES: N#CCc1cnc(-c2ccc3c(c2)OCCO3)n1-c1ccnc(NC2CCCCC2)n1
pIC50 [1]: 5.20

SMILES: N#CCc1cnc(-c2ccc(F)c(C(F)(F)F)c2)n1-c1ccnc(N[C@H]2CCCNC2)n1
IC50 [1]: Not Active

Continued by rising pIC50 [1], values first:

pIC50 [1]: 6.40
SMILES: N#CCc1cnc(-c2ccc3ccccc3n2)n1-c1ccnc(N[C@H]2CCCN(C(=O)C3CC3)C2)n1

pIC50 [1]: 6.54
SMILES: N#CCc1cnc(-c2ccc(Cl)c(Cl)c2)n1-c1ccnc(NC2CCOCC2)n1

pIC50 [1]: 6.85
SMILES: N#CCc1cnc(-c2ccc3ccccc3c2)n1-c1ccnc(NC2CCCCC2)n1

pIC50 [5]: < 5.00
pIC50 [1]: 8.00
pIC50 [6]: ~6.00
SMILES: O=C(C1CC1)N1CCC[C@H](Nc2nccc(-n3c(-c4ccc5c(c4)OCCO5)nc4cc(O)c(O)cc43)n2)C1

pIC50 [1]: 8.28
pIC50 [3]: 6.29
pIC50 [4]: 7.25
SMILES: N#CCc1cnc(-c2ccc(Cl)c(Cl)c2)n1-c1ccnc(N[C@H]2CCCN(C(=O)NC3CC3)C2)n1

pIC50 [1]: 8.30
pIC50 [3]: 6.68
pIC50 [4]: 7.18
SMILES: N#CCc1cnc(-c2ccc3ccccc3c2)n1-c1ccnc(N[C@@H]2CCCN(C(=O)C3CC3)C2)n1

Cmax [7]: 406 ng/mL
Tmax [8]: 40.2 min
pIC50 [1]: 8.70
bioavailability [10]: 6.2%
AUC at 24 h [11]: 839 ng·h/mL
pIC50 [3]: 6.51
pIC50 [4]: 7.35
half-life [13]: 105 min
half-life [14]: 12.6 min
AUC at 24 h [15]: 902 ng·h/mL
SMILES: N#CCc1cnc(-c2ccc(Cl)c(Cl)c2)n1-c1ccnc(N[C@H]2CCCN(C(=O)C3CC3)C2)n1
viability at 20 µM (Cortical neurone [9]): 47%
viability at 20 µM (Cortical neurone [12]): 72.4%
